Measured values: patent US9986723B2, “Screen and use of therapeutics for pancreatic ductal adenocarcinoma” (The Board of Regents of the University of Texas System, priority 2014, dated 2018)

Experiments:
[1] = tested on: KIC tumors; assay: Low dose warfarin in drinking water, spontaneous genetic PDA model; type: in vivo, mouse; settings: warfarin 0.5 mg/L drinking water, 4 weeks from 3 weeks of age
Description: (FIG. 23A) Primary tumor burden after therapy with warfarin. Therapy was initiated when implanted tumors were visible by ultrasound (˜10 mm^3) and consisted of control (normal drinking water) or warfarin, administered in the drinking water at 0.5 mg/L (immunocompetent mice: Pan02 (n=4, control; 3, warfarin), KIC (n=10, control; 8, warfarin)) or 1 mg/L (Panc-1 (n=10, control; 8, warfarin), AsPC-1 (n=8, control; 6, warfarin), Capan-1 (n=10, control; 7, warfarin)) and continued for 2-4 weeks until control mice were moribund. Therapy in KIC mice was initiated at 3 weeks of age and continued for 4 weeks. (FIG. 23B) Metastases were determined grossly upon sacrifice and confirmed by histological evaluation of the liver. […] Incidence of metastasis is also indicated. […] Tumor volume determined by serial ultrasound. […] Therapy with mAb 10C9 (250 μg 2×/week) was initiated when tumors were established as above and persisted for 4 weeks. […] Error bars indicate s.e.m.
Animal studies. […] Mice with established tumors, as determined by sonography were randomized to receive normal drinking water or water containing 1 mg/L (˜3.0 μM) warfarin for experiments in immunocompromised mice and 0.5 mg/L (˜1.5 μM) in experiments in immunocompetent animals with or without gemcitabine 25 mg/kg twice weekly depending on experimental design.

[2] = tested on: cell migration; assay: Scratch migration assay; type: cell-based; settings: warfarin 2 μM, 16 hrs
Description: (FIG. 24A) HEK293 cells engineered to stably express recombinant Gas6 were grown in the presence of Vitamin K or Vitamin K+warfarin. Gas6 levels and γ-carboxylation were assayed by immunoblotting conditioned media. Conditioned media from untransfected HEK293 cells was used as a negative control. (FIG. 24B) Panc1 cells were grown overnight in media with 1% serum with no additions (NT), warfarin (2 μM) or BGB324 (2 μM). Lysates were probed for total Axl (tAxl) and phosphorylated Axl (pAxl). (FIG. 24C) Panc1 cells were grown in the presence of control media, Vitamin K, warfarin or warfarin+Vitamin K. The level of phosphorylated Axl (pAXL, red) was determined by immunofluorescence. (FIG. 24D) Panc1 cells were grown overnight in media with 1% serum with no additions (control), warfarin (1 μM), Gas6 (1.3 nM) or Gas6+warfarin. Lysates were probed for phosphorylated Akt (pAkt) and actin. (FIG. 24E) Lysates from Panc1 tumors harvested from mice treated with control or warfarin were probed for expression of tAxl, pAxl, actin, pAKT, tAKT, and cleaved Parp. (FIG. 24F) The effect of warfarin on cell migration was assessed by a ‘scratch’ assay. Monolayers of the indicted cells were wounded with a pipet tip. The cells were incubated in media containing 2% serum+/−warfarin (2 μM) or media containing 2% serum+Gas6 (1.3 nM)+/−warfarin.

[3] = target: vitamin K epoxide reductase (Homo sapiens, UniProt Q9BQB6); settings: cited from earlier work
Sequence of vitamin K epoxide reductase (Q9BQB6 whole entry): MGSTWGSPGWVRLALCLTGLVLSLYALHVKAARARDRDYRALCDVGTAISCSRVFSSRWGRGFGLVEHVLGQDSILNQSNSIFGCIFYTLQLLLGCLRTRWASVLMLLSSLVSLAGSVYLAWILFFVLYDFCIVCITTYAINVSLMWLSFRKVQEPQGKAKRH

## CC(=O)CC(c1ccccc1)c1c(O)c2ccccc2oc1=O (racemic) [Warfarin]
[1]
  primary tumor growth: reduced primary tumor growth
[2]
  basal and Gas6-induced cell migration (% wound closure): reduced
[3]
  duration of action of a single dose: 2 to 5 days
